Measured values published in patent US20240360082A1, “SUBSTITUTED PYRIDONE COMPOUNDS USEFUL TO TREAT ORTH[…]” (priority 2021, published 2024).
Read-outs that look alike come from different tables or passages of the source.

Molecular target: influenza A virus minigenome (PB2, PB1, PA, NP proteins) (UniProt P04665)
Format: cell-based

influenza A virus minigenome (PB2, PB1, PA, NP proteins), sequence (P04665 whole entry): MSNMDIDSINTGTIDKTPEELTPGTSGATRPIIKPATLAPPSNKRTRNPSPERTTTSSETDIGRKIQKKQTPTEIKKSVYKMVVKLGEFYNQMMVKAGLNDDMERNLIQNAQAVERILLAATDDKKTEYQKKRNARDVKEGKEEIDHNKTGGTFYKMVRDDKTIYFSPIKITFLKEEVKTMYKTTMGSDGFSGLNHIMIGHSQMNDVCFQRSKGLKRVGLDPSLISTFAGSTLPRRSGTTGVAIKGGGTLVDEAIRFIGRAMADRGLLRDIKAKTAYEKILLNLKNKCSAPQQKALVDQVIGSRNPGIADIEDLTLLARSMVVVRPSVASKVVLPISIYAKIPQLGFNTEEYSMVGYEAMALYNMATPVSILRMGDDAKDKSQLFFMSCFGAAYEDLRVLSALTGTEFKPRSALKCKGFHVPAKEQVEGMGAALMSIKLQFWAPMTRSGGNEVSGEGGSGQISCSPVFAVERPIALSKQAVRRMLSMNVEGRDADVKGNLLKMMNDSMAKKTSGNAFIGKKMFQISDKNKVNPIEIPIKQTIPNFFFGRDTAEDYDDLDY

SMILES	IC50 (read-out: RNP_ Hubei B IC50)	IC50 (read-out: RNP_Hubei B)
NC(=O)c1cc(-c2ccc(OCC3COCC(C4CCCC4)O3)cc2)c(C(F)(F)F)[nH]c1=O (racemic) [Example 333, 5-(4-((6-cyclopentyl-1,4-dioxan-2-yl)methoxy)phenyl)-2-oxo-6-(trifluoromethyl)-1,2-dihydropyridine-3-carboxamide]	1 to 5 µM	
NC(=O)c1cc(-c2ccc(OCC3COC4(CC4)CO3)cc2)c(C(F)(F)F)[nH]c1=O (racemic) [Example 338, 5-(4-((4,7-dioxaspiro[2.5]octan-6-yl)methoxy)phenyl)-2-oxo-6-(trifluoromethyl)-1,2-dihydropyridine-3-carboxamide]	10 to 25 µM	
CC(Oc1ccc(-c2cc(C(N)=O)c(=O)[nH]c2C(F)(F)F)cc1)c1cccnc1 (single isomer, unassigned) [Example 80, (R or S)-2-oxo-5-(4-(1-(pyridin-3-yl)ethoxy)phenyl)-6-(trifluoromethyl)-1,2-dihydropyridine-3-carboxamide]		10 to 25 µM
CC(Oc1ccc(-c2cc(C(N)=O)c(=O)[nH]c2C(F)(F)F)cc1)c1cccnc1 (single isomer, unassigned) [Example 81, (R or S)-2-oxo-5-(4-(1-(pyridin-3-yl)ethoxy)phenyl)-6-(trifluoromethyl)-1,2-dihydropyridine-3-carboxamide]		10 to 25 µM
CC(Oc1ccc(-c2cc(C(N)=O)c(=O)[nH]c2C(F)(F)F)cc1)c1cncnc1 (single isomer, unassigned) [Example 95, (R or S)-2-oxo-5-(4-(1-(pyrimidin-5-yl)ethoxy)phenyl)-6-(trifluoromethyl)-1,2-dihydropyridine-3-carboxamide]		25 to 50 µM
CC(Oc1ccc(-c2cc(C(N)=O)c(=O)[nH]c2C(F)(F)F)cc1)c1cncnc1 (single isomer, unassigned) [Example 96, (R or S)-2-oxo-5-(4-(1-(pyrimidin-5-yl)ethoxy)phenyl)-6-(trifluoromethyl)-1,2-dihydropyridine-3-carboxamide]		25 to 50 µM
CC(Oc1ccc(-c2cc(C(N)=O)c(=O)[nH]c2C(F)(F)F)cc1)c1cccc(C#N)c1 (single isomer, unassigned) [Example 97, (R or S)-5-(4-(1-(3-cyanophenyl)ethoxy)phenyl)-2-oxo-6-(trifluoromethyl)-1,2-dihydropyridine-3-carboxamide]		25 to 50 µM
CC(Oc1ccc(-c2cc(C(N)=O)c(=O)[nH]c2C(F)(F)F)cc1)c1cccc(C#N)c1 (single isomer, unassigned) [Example 98, (R or S)-5-(4-(1-(3-cyanophenyl)ethoxy)phenyl)-2-oxo-6-(trifluoromethyl)-1,2-dihydropyridine-3-carboxamide]		1 to 5 µM
CC(Oc1ccc(-c2cc(C(N)=O)c(=O)[nH]c2C(F)(F)F)cc1)c1ccc2nonc2c1 (single isomer, unassigned) [Example 100, (R or S)-5-(4-(1-(benzo[c][1,2,5]oxadiazol-5-yl)ethoxy)phenyl)-2-oxo-6-(trifluoromethyl)-1,2-dihydropyridine-3-carboxamide]		5 to 10 µM
COC1CCOC(COc2ccc(-c3cc(C(N)=O)c(=O)[nH]c3C(F)(F)F)cc2)C1 (single isomer, unassigned) [Example 202, 5-(4-((4-methoxytetrahydro-2H-pyran-2-yl)methoxy)phenyl)-2-oxo-6-(trifluoromethyl)-1,2-dihydropyridine-3-carboxamide]		10 to 25 µM
COC1CCOC(COc2ccc(-c3cc(C(N)=O)c(=O)[nH]c3C(F)(F)F)cc2)C1 (single isomer, unassigned) [Example 203, 5-(4-((4-methoxytetrahydro-2H-pyran-2-yl)methoxy)phenyl)-2-oxo-6-(trifluoromethyl)-1,2-dihydropyridine-3-carboxamide]		25 to 50 µM
NC(=O)c1cc(-c2ccc(OCC3COCCO3)cc2)c(C(F)(F)F)[nH]c1=O (single isomer, unassigned) [Example 237, 5-(4-((1,4-dioxan-2-yl)methoxy)phenyl)-2-oxo-6-(trifluoromethyl)-1,2-dihydropyridine-3-carboxamide]	25 to 50 µM	
NC(=O)c1cc(-c2ccc(OCC3COCCO3)cc2)c(C(F)(F)F)[nH]c1=O (single isomer, unassigned) [Example 238, 5-(4-((1,4-dioxan-2-yl)methoxy)phenyl)-2-oxo-6-(trifluoromethyl)-1,2-dihydropyridine-3-carboxamide]	25 to 50 µM	
Cn1ncc2c1COCC2COc1ccc(-c2cc(C(N)=O)c(=O)[nH]c2C(F)(F)F)cc1 (single isomer, unassigned) [Example 289, 5-(4-((1-methyl-1,4,5,7-tetrahydropyrano[3,4-c]pyrazol-4-yl)methoxy)phenyl)-2-oxo-6-(trifluoromethyl)-1,2-dihydropyridine-3-carboxamide]	5 to 10 µM	
Cn1ncc2c1COCC2COc1ccc(-c2cc(C(N)=O)c(=O)[nH]c2C(F)(F)F)cc1 (single isomer, unassigned) [Example 290, 5-(4-((1-methyl-1,4,5,7-tetrahydropyrano[3,4-c]pyrazol-4-yl)methoxy)phenyl)-2-oxo-6-(trifluoromethyl)-1,2-dihydropyridine-3-carboxamide]	5 to 10 µM	
CC(C)n1ncc2c1COCC2COc1ccc(-c2cc(C(N)=O)c(=O)[nH]c2C(F)(F)F)cc1 (single isomer, unassigned) [Example 293, 5-(4-((1-isopropyl-1,4,5,7-tetrahydropyrano[3,4-c]pyrazol-4-yl)methoxy)phenyl)-2-oxo-6-(trifluoromethyl)-1,2-dihydropyridine-3-carboxamide]	5 to 10 µM	
CC(C)n1ncc2c1COCC2COc1ccc(-c2cc(C(N)=O)c(=O)[nH]c2C(F)(F)F)cc1 (single isomer, unassigned) [Example 294, 5-(4-((1-isopropyl-1,4,5,7-tetrahydropyrano[3,4-c]pyrazol-4-yl)methoxy)phenyl)-2-oxo-6-(trifluoromethyl)-1,2-dihydropyridine-3-carboxamide]	5 to 10 µM	
CC(C)n1cc2c(n1)COCC2COc1ccc(-c2cc(C(N)=O)c(=O)[nH]c2C(F)(F)F)cc1 (single isomer, unassigned) [Example 295, 5-(4-((2-isopropyl-2,4,5,7-tetrahydropyrano[3,4-c]pyrazol-4-yl)methoxy)phenyl)-2-oxo-6-(trifluoromethyl)-1,2-dihydropyridine-3-carboxamide]	5 to 10 µM	
CC(C)n1cc2c(n1)COCC2COc1ccc(-c2cc(C(N)=O)c(=O)[nH]c2C(F)(F)F)cc1 (single isomer, unassigned) [Example 296, 5-(4-((2-isopropyl-2,4,5,7-tetrahydropyrano[3,4-c]pyrazol-4-yl)methoxy)phenyl)-2-oxo-6-(trifluoromethyl)-1,2-dihydropyridine-3-carboxamide]	5 to 10 µM	
NC(=O)c1cc(-c2ccc(OCC3C[C@@H]4CC[C@H]3O4)cc2)c(C(F)(F)F)[nH]c1=O (single isomer, unassigned) [Example 312, 5-(4-((7-oxabicyclo[2.2.1]heptan-2-yl)methoxy)phenyl)-2-oxo-6-(trifluoromethyl)-1,2-dihydropyridine-3-carboxamide]	5 to 10 µM	
NC(=O)c1cc(-c2ccc(OCC3C[C@@H]4CC[C@H]3O4)cc2)c(C(F)(F)F)[nH]c1=O (single isomer, unassigned) [Example 313, 5-(4-((7-oxabicyclo[2.2.1]heptan-2-yl)methoxy)phenyl)-2-oxo-6-(trifluoromethyl)-1,2-dihydropyridine-3-carboxamide]	10 to 25 µM	
NC(=O)c1cc(-c2ccc(OCC3C[C@@H]4CC[C@H]3O4)cc2)c(C(F)(F)F)[nH]c1=O (single isomer, unassigned) [Example 314, 5-(4-((7-oxabicyclo[2.2.1]heptan-2-yl)methoxy)phenyl)-2-oxo-6-(trifluoromethyl)-1,2-dihydropyridine-3-carboxamide]	10 to 25 µM	
NC(=O)c1cc(-c2ccc(OCC3C[C@@H]4CC[C@H]3O4)cc2)c(C(F)(F)F)[nH]c1=O (single isomer, unassigned) [Example 315, 5-(4-((7-oxabicyclo[2.2.1]heptan-2-yl)methoxy)phenyl)-2-oxo-6-(trifluoromethyl)-1,2-dihydropyridine-3-carboxamide]	10 to 25 µM	
NC(=O)c1cc(-c2ccc(OCC3OCC4CCC3O4)cc2)c(C(F)(F)F)[nH]c1=O (single isomer, unassigned) [Example 317, 5-(4-((3,8-dioxabicyclo[3.2.1]octan-2-yl)methoxy)phenyl)-2-oxo-6-(trifluoromethyl)-1,2-dihydropyridine-3-carboxamide]		5 to 10 µM
NC(=O)c1cc(-c2ccc(OCC3OCC4CCC3O4)cc2)c(C(F)(F)F)[nH]c1=O (single isomer, unassigned) [Example 318, 5-(4-((3,8-dioxabicyclo[3.2.1]octan-2-yl)methoxy)phenyl)-2-oxo-6-(trifluoromethyl)-1,2-dihydropyridine-3-carboxamide]	5 to 10 µM	
NC(=O)c1cc(-c2ccc(OCC3OCC4CCC3O4)cc2)c(C(F)(F)F)[nH]c1=O (single isomer, unassigned) [Example 319, 5-(4-((3,8-dioxabicyclo[3.2.1]octan-2-yl)methoxy)phenyl)-2-oxo-6-(trifluoromethyl)-1,2-dihydropyridine-3-carboxamide]	5 to 10 µM	
CC1COC(COc2ccc(-c3cc(C(N)=O)c(=O)[nH]c3C(F)(F)F)cc2)CO1 (single isomer, unassigned) [Example 322, 5-(4-((5-methyl-1,4-dioxan-2-yl)methoxy)phenyl)-2-oxo-6-(trifluoromethyl)-1,2-dihydropyridine-3-carboxamide]	25 to 50 µM	
CC1COC(COc2ccc(-c3cc(C(N)=O)c(=O)[nH]c3C(F)(F)F)cc2)CO1 (single isomer, unassigned) [Example 323, 5-(4-((5-methyl-1,4-dioxan-2-yl)methoxy)phenyl)-2-oxo-6-(trifluoromethyl)-1,2-dihydropyridine-3-carboxamide]	10 to 25 µM	
NC(=O)c1cc(-c2ccc(OCC3COCC4(CC4)O3)cc2)c(C(F)(F)F)[nH]c1=O (single isomer, unassigned) [Example 335, (4-(4,7-dioxaspiro[2.5]octan-5-ylmethoxy)phenyl)-2-oxo-6-(trifluoromethyl)-1,2-dihydropyridine-3-carboxamide]	5 to 10 µM	
